Tests used:
[1] = target: T1, Disintegrin and metalloproteinase domain-containing protein 17 (Homo sapiens, UniProt P78536); test: Inhibition of TACE
[2] = target: T2, Disintegrin and metalloproteinase domain-containing protein 10 (Homo sapiens, UniProt O14672); test: Inhibition of ADAM10
T2 sequence (O14672 whole entry): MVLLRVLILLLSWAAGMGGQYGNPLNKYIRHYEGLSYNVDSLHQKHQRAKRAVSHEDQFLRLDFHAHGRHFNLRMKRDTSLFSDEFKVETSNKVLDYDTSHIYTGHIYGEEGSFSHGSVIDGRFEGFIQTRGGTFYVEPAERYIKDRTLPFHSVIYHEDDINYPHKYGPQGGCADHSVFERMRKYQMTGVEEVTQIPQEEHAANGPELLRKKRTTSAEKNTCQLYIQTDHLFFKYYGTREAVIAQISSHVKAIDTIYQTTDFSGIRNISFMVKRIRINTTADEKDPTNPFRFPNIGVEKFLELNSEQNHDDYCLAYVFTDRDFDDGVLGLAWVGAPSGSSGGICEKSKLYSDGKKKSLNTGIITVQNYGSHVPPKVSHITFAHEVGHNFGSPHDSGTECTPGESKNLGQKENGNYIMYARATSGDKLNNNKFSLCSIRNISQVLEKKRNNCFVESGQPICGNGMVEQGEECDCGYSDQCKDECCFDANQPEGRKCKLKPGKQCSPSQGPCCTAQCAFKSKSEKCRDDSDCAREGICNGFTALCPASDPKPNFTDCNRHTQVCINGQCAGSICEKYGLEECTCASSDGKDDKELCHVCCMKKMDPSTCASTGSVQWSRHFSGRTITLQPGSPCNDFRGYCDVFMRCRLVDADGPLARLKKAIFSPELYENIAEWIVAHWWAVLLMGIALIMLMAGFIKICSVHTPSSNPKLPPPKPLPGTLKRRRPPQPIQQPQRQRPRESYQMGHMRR

Interstitial collagenase = target: T3, Interstitial collagenase (Homo sapiens, UniProt P03956); test: Inhibition of MMP1
T3 sequence (P03956 whole entry): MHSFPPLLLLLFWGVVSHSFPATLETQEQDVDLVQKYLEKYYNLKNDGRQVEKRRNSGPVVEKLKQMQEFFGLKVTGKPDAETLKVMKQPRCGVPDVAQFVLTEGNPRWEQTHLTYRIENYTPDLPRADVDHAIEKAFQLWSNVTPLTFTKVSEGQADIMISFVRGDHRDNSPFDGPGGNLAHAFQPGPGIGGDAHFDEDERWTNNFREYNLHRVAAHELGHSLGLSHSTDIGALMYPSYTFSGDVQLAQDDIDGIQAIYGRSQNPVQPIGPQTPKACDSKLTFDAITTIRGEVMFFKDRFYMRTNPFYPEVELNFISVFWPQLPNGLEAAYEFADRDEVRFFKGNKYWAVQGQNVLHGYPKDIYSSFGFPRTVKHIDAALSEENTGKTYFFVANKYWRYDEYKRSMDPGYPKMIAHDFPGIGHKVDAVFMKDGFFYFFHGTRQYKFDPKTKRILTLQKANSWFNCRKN

[3] = target: 72 kDa type IV collagenase (Homo sapiens, UniProt P08253); test: Inhibition of MMP2
Stromelysin-1 = Stromelysin-1 (Homo sapiens, UniProt P08254); test: Inhibition of MMP3
Matrilysin = target: T4, Matrilysin (Homo sapiens, UniProt P09237); test: Inhibition of MMP7
T4 sequence (P09237 whole entry): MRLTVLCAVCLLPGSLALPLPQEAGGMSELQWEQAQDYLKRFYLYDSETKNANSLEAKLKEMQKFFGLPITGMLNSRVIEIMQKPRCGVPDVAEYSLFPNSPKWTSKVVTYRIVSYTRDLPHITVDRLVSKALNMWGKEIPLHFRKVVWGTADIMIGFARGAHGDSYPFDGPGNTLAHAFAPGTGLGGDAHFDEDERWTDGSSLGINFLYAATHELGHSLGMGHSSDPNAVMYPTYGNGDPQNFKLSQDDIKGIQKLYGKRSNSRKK

[4] = target: Matrix metalloproteinase-9 (Homo sapiens, UniProt P14780); test: Inhibition of MMP9
Collagenase 3 = Collagenase 3 (Homo sapiens, UniProt P45452); test: Inhibition of MMP13
[5] = target: Matrix metalloproteinase-14 (Homo sapiens, UniProt P50281); test: Inhibition of MMP14
[6] = target: T1, Disintegrin and metalloproteinase domain-containing protein 17; test: Inhibition of TACE at 500 nM
[7] = Clearance in Sprague-Dawley rat at 3 mg/kg, iv; type: ADME, organism-based; set-up: dose 3 mg/kg, route intravenous; details: in vivo
[8] = AUC in Sprague-Dawley rat at 3 mg/kg, iv; type: ADME, organism-based; set-up: dose 3 mg/kg, route intravenous; details: plasma
[9] = Half life in Sprague-Dawley rat at 10 mg/kg, po; type: ADME, organism-based; set-up: dose 10 mg/kg, route oral; details: in vivo
[10] = AUC in Sprague-Dawley rat at 10 mg/kg, po; type: ADME, organism-based; set-up: dose 10 mg/kg, route oral; details: plasma
[11] = Bioavailability in Sprague-Dawley rat at 10 mg/kg, po; type: ADME, organism-based; details: in vivo

T1 sequence (P78536 whole entry, the tested form may be a part): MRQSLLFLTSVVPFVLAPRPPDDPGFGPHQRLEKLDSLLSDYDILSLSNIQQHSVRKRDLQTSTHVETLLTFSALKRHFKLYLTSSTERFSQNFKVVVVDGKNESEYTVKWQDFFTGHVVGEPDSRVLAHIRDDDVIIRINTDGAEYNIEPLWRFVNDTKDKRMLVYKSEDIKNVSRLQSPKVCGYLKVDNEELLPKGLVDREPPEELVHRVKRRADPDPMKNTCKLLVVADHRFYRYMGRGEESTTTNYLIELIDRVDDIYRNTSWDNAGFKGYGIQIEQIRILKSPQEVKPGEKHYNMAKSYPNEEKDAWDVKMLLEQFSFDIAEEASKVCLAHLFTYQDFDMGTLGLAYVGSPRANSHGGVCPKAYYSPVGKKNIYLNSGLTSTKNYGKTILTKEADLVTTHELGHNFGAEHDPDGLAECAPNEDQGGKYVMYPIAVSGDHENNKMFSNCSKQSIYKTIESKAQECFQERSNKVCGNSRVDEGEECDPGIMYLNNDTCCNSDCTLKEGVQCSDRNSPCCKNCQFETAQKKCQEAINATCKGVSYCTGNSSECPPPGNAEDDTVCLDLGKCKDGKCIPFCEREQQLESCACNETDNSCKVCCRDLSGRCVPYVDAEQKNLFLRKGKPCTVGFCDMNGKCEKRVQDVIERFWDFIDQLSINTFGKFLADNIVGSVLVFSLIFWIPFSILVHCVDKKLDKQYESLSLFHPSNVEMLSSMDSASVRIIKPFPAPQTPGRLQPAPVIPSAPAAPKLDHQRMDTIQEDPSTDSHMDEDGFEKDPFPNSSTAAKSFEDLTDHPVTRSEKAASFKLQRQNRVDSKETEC
Sequence of 72 kDa type IV collagenase (P08253 whole entry): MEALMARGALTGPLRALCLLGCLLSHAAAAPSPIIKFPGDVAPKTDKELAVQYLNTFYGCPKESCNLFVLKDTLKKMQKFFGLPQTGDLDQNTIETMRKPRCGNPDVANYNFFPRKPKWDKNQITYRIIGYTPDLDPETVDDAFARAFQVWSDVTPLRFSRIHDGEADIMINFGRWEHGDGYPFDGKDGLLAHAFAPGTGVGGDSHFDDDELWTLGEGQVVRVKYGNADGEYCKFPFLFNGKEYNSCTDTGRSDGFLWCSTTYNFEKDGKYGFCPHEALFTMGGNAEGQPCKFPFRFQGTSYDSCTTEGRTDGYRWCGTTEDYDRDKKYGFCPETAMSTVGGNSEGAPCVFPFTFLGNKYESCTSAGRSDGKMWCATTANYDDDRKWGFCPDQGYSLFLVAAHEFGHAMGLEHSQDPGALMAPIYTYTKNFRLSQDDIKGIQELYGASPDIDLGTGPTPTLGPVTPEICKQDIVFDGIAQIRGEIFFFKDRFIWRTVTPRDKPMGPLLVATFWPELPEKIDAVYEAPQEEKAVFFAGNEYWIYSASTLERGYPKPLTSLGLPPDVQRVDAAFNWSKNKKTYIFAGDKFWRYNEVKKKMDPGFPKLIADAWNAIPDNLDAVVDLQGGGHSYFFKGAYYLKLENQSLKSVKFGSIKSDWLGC
Sequence of Matrix metalloproteinase-9 (P14780 whole entry): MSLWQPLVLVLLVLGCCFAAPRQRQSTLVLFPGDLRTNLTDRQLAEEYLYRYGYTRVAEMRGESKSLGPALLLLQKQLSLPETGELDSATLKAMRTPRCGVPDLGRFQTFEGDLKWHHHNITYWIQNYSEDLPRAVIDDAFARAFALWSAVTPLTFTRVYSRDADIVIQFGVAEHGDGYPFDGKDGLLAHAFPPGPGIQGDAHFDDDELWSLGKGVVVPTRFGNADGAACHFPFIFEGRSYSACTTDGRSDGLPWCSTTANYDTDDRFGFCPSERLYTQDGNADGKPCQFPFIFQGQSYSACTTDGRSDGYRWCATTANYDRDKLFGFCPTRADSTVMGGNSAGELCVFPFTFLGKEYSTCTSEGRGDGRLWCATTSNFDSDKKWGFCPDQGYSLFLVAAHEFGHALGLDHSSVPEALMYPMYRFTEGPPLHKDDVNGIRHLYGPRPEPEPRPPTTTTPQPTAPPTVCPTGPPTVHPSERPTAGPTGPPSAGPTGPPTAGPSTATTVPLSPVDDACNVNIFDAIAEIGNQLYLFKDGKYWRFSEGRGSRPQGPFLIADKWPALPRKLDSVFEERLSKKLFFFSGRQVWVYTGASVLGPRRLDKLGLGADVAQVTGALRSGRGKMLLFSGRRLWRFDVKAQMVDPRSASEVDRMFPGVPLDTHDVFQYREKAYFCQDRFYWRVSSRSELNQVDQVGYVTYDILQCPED
Sequence of Stromelysin-1 (P08254 whole entry): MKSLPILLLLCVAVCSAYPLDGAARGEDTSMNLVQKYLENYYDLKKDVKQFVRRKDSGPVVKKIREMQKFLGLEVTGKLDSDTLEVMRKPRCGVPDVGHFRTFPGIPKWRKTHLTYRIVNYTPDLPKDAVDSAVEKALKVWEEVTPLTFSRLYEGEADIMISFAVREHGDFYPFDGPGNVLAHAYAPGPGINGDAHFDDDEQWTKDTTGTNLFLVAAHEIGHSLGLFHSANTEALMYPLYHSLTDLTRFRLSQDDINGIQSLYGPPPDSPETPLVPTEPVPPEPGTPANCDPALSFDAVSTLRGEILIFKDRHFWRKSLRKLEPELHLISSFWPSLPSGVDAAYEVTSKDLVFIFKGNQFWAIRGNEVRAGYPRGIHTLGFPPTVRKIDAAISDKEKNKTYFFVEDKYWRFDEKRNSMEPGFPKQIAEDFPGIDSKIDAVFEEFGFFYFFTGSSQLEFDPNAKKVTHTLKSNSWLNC

Structure (SMILES) | Ki [1] [nM] | also measured
Cc1nc2ccccc2n1Cc1ccc(CNC(=O)[C@H](O)[C@@H](O)C(=O)N2CCCC2c2cccs2)s1 (mixture of isomers) | 4 | –
O=C(NCc1ccc(-n2cccn2)cc1)[C@H](O)[C@@H](O)C(=O)N1CCCC1c1cccc(Cl)c1 (mixture of isomers) | 4 | Ki [2]: 602 nM; Ki (Interstitial collagenase): > 100000 nM; Ki [3]: 1900 nM; Ki (Stromelysin-1): 19000 nM; Ki (Matrilysin): 47000 nM; Ki [4]: 11000 nM; Ki (Collagenase 3): 3500 nM; Ki [5]: 120 nM
O=C(NCc1ccc(Cn2c(C(F)(F)F)nc3ccccc32)s1)[C@H](O)[C@@H](O)C(=O)N1Cc2ccccc2C1 | 0.2 | –
Cc1nc2ccccc2n1Cc1ccc(CNC(=O)[C@H](O)[C@@H](O)C(=O)N2CCCC2c2ccccn2)s1 (mixture of isomers) | 8 | –
O=C(NCc1ccc(-n2ccnc2)cc1)[C@H](O)[C@@H](O)C(=O)N1CCCC1c1cccc(Cl)c1 (mixture of isomers) | 270 | –
O=C(NCc1ccc(Cc2cccc3ccccc23)s1)[C@H](O)[C@@H](O)C(=O)N1CCC[C@@H]1c1cccc(Cl)c1 | – | inhibition [6]: 50%
N#Cc1ccccc1-c1ccc(CNC(=O)[C@H](O)[C@@H](O)C(=O)N2CCC[C@@H]2c2ccccc2)cc1 | 17 | –
O=C(NCc1ccc(-c2ccon2)cc1)[C@H](O)[C@@H](O)C(=O)N1CCC[C@@H]1c1ccccc1 | 8 | –
N#Cc1cnccc1-c1ccc(CNC(=O)[C@H](O)[C@@H](O)C(=O)N2CCC[C@@H]2c2ccccc2)cc1 | 5 | –
Cc1nc2ccccc2n1Cc1ccc(CNC(=O)[C@H](O)[C@@H](O)C(=O)N2Cc3ccccc3C2)s1 | 0.5 | –
O=C(NCc1ccc(-c2cccnc2)cc1)[C@H](O)[C@@H](O)C(=O)N1CCC[C@@H]1c1ccccc1 | 36 | –
O=C(NCc1ccc(-c2nccs2)cc1)[C@H](O)[C@@H](O)C(=O)N1CCCC1c1cccc(Cl)c1 (mixture of isomers) | 74 | –
O=C(NCc1ccc(-c2ccncc2)cc1)[C@H](O)[C@@H](O)C(=O)N1CCC[C@@H]1c1ccccc1 | 15 | –
O=C(NCc1ccc(Cn2ccnc2)s1)[C@H](O)[C@@H](O)C(=O)N1CCC[C@@H]1c1cccc(Cl)c1 | 37 | –
O=C(NCc1ccc(Cc2ccccc2)s1)[C@H](O)[C@@H](O)C(=O)N1CCC[C@@H]1c1cccc(Cl)c1 | 20 | –
O=C(NCc1ccc(Cc2cccc(Cl)c2)s1)[C@H](O)[C@@H](O)C(=O)N1CCC[C@@H]1c1cccc(Cl)c1 | 48 | –
O=C(NCc1ccc(-c2ccccc2)cc1)[C@H](O)[C@@H](O)C(=O)N1CCC[C@@H]1c1ccccc1 | 22 | –
C[C@@H]1CN(c2ccccc2C#N)CCC1CNC(=O)[C@H](O)[C@@H](O)C(=O)N1CCC[C@@H]1c1ccccc1 (stereo partly specified) | 2 | –
O=C(NCc1cc(Cc2ccccc2)cs1)[C@H](O)[C@@H](O)C(=O)N1CCCC1c1cccc(Cl)c1 (stereo partly specified) | 45 | –
Cc1nc2ccccc2n1-c1ccc(CNC(=O)[C@H](O)[C@@H](O)C(=O)N2CCCC2c2cccc(Cl)c2)cc1 (mixture of isomers) | 296 | –
O=C(NCc1cccs1)[C@H](O)[C@@H](O)C(=O)N1CCCC1c1cccc(Cl)c1 (stereo partly specified) | – | inhibition [6]: 44%

Structure (SMILES) | Ki [1] [nM] | also measured
Cc1nc2ccccc2n1Cc1ccc(CNC(=O)[C@H](O)[C@@H](O)C(=O)N2CCCC2c2ccncc2)s1 (mixture of isomers) | 36 | –
O=C(NCc1ccc(Cc2ccsc2)s1)[C@H](O)[C@@H](O)C(=O)N1CCC[C@@H]1c1cccc(Cl)c1 | 11 | –
Cc1nc2ccccc2n1Cc1ccc(CNC(=O)[C@H](O)[C@@H](O)C(=O)N2CCC[C@@H]2c2cccc(Cl)c2)s1 | 4 | –
C[C@H]1CN(c2ccccc2C#N)CCC1CNC(=O)[C@H](O)[C@@H](O)C(=O)N1CCC[C@@H]1c1ccccc1 (stereo partly specified) | 315 | –
O=C(NCc1ccc(-c2cccs2)cc1)[C@H](O)[C@@H](O)C(=O)N1CCC[C@@H]1c1ccccc1 | 28 | –
COc1ccccc1Cc1ccc(CNC(=O)[C@H](O)[C@@H](O)C(=O)N2CCC[C@@H]2c2cccc(Cl)c2)s1 | 3 | –
O=C(NCc1ccc(Cc2ccccc2Cl)s1)[C@H](O)[C@@H](O)C(=O)N1CCC[C@@H]1c1cccc(Cl)c1 | 9.3 | –
N#Cc1ccccc1N1CCC(CNC(=O)[C@H](O)[C@@H](O)C(=O)N2CCCC2c2cccc(Cl)c2)CC1 (mixture of isomers) | 4 | –
N#Cc1ccccc1N1CC2C(CNC(=O)[C@H](O)[C@@H](O)C(=O)N3CCC[C@@H]3c3ccccc3)C2C1 (stereo partly specified) | 12 | –
Cc1nc2ccccc2n1Cc1ccc(CNC(=O)[C@H](O)[C@@H](O)C(=O)N2CCCC2c2nccs2)s1 (mixture of isomers) | 9 | –
Cc1nc2ccccc2n1Cc1ccc(CNC(=O)[C@H](O)[C@@H](O)C(=O)N2CCCC2c2cccnc2)s1 (mixture of isomers) | 12 | –
Cc1nc2ccccc2n1Cc1ccc(CNC(=O)[C@H](O)[C@@H](O)C(=O)N2CCC[C@@H]2c2csc(N)n2)s1 | 2 | –
N#Cc1sccc1-c1ccc(CNC(=O)[C@H](O)[C@@H](O)C(=O)N2CCC[C@@H]2c2ccccc2)cc1 | 2 | –
O=C(NCc1ccc(-c2csnn2)cc1)[C@H](O)[C@@H](O)C(=O)N1CCCC1c1cccc(Cl)c1 (mixture of isomers) | 3 | –
C[C@@H](NC(=O)[C@H](O)[C@@H](O)C(=O)N1CCC[C@@H]1c1cccc(Cl)c1)c1ccc(-n2cccn2)cc1 | 0.86 | clearance [7]: 35 mL/min/kg; AUC [8]: 3.1 µM·h; half-life [9]: 36 min; AUC [10]: 2.1 µM·h; bioavailability [11]: 20%; Ki [2]: 166 nM; Ki (Interstitial collagenase): > 100000 nM; Ki [3]: 43600 nM; Ki (Matrilysin): 3800 nM; Ki [4]: 88400 nM; Ki (Collagenase 3): 3300 nM; Ki [5]: 1100 nM
O=C(NCc1ccc(-c2ccccc2)nc1)[C@H](O)[C@@H](O)C(=O)N1CCCC1c1cccc(Cl)c1 (mixture of isomers) | 307 | –
O=C(NCc1ccc(-c2ccsc2)cc1)[C@H](O)[C@@H](O)C(=O)N1CCC[C@@H]1c1ccccc1 | 13 | –
O=C(NCc1ccc(-c2ccccc2)cn1)[C@H](O)[C@@H](O)C(=O)N1CCCC1c1cccc(Cl)c1 (mixture of isomers) | 6 | –
O=C(NCc1ccc(Cc2ccc(Cl)cc2)s1)[C@H](O)[C@@H](O)C(=O)N1CCC[C@@H]1c1cccc(Cl)c1 | 37 | –
O=C(NCc1ccc(-c2cscn2)cc1)[C@H](O)[C@@H](O)C(=O)N1CCCC1c1cccc(Cl)c1 (mixture of isomers) | 18 | –

From ChEMBL document CHEMBL1777681, “Structure and activity relationships of tartrate-based TACE inhibitors” (Bioorg Med Chem Lett, 2010)
